Results published in patent publication US11427615B2, “Peptide compound and application thereof, and composition containing peptide compound” (XDCEXPLORER (SHANGHAI) CO., LTD., priority 2017, dated 2022).
Non-standard residues stand in square brackets, D forms with d. Residues, ends and D or L forms follow the SMILES beside them. Groups on a side chain read outwards from the residue. *: point of attachment. dPhe(2,4-Cl2) = N[C@H](Cc1ccc(Cl)cc1Cl)C(=O)O; C18 diacid = O=C(O)CCCCCCCCCCCCCCCCC(=O)*; Oic = O=C(O)[C@@H]1C[C@@H]2CCCC[C@@H]2N1; PEG8 = NCCOCCOCCOCCOCCOCCOCCOCCOCCC(=O)O; Pro(4,4-F2) = O=C(O)[C@@H]1CC(F)(F)CN1; dAla(2-furyl) = N[C@H](Cc1ccco1)C(=O)O; Arg(Me) = CNC(=N)NCCC[C@H](N)C(=O)O; Palmitoyl = CCCCCCCCCCCCCCCC(=O)*; Hyp = O=C(O)[C@@H]1C[C@@H](O)CN1; PEG4 = NCCOCCOCCOCCOCCC(=O)O; Lauroyl = CCCCCCCCCCCC(=O)*; Pip = O=C(O)[C@@H]1CCCCN1; Ac6c = NC1(C(=O)O)CCCCC1; AEEA = NCCOCCOCC(=O)O; azaGly = NNC(=O)O

Tests used:
[1] = target: T1, human kiss1 receptor (GPR54) (Homo sapiens, UniProt Q969F8); assay: Kiss1 receptor (GPR54) binding activity of agonists, FRET detection in NFAT-bla CHO-K1 cells; type: cell-based; details: GPR54; measured according to the method of effect Embodiment 1; preliminary data; read-out: Preliminary measurement data (GPR54) EC50
T1 construct: host or cells: NFAT-bla CHO-K1 cells (Chinese hamster ovary), purchased recombinant cell line

[2] = Plasma stability, LC-MS/MS; type: in vitro ADME; details: rat plasma, 37° C., final concentration 500 ng/ml, time points 0 minutes, 1, 2 and 4 hours; calculated half-life; read-out: Rat plasma (T½ (h)) (converted)
Experimental: Effect Embodiment 2 Experimental Data on Plasma Stability of Some Compounds
1. Preparation of 50 mM Phosphate Buffer:
The 5.750 g Na2HPO4, 1.141 g NaH2PO4. and 4.095 g NaCl (Shanghai Titan) weighed was dissolved in 1000 mL ultrapure water and the pH was adjusted to 7.4 to give 50 mM phosphate buffer containing 70 mM NaCl. The prepared phosphoric acid buffer solution was stored in the refrigerator at 4° C. and was valid for one week.
2. Preparation of compound stock solution:
1). 5 mg/mL of test compound: 5 mg of compound was weighted and dissolved in 1 mL of DMSO.
2). 20 mM control: 2.728 mg of Fuka was dissolved in 0.5 mL of DMSO. 3.878 mg of benzalkonium bromide was dissolved in 0.5 mL of DMSO (Amresco).
3. Preparation of experimental plasma:
The frozen plasma (human: Shanghai wise chemistry; Rats and mice: Shanghai Sciple-Bikai; Dogs and monkeys: Suzhou Xishan Zhongke) were taken out of the −80° C. refrigerator, immediately placed in a 37° C. water bath, slightly shaken to melt it, then the thawed plasma was poured into a centrifuge tube, centrifuged at 3000 rpm for 8 min, and the supernatant was taken for experiments. The pH value of plasma was detected by a pH Meter & Sensor (METTLER TOLEDO). Only plasma with a pH value between 7.4 and 8 was used in the experiment. The plasma was placed on an ice bath for later use.
4. Preparation of administration solution:
1). 125 µg/ml test compound solution: 5 μL of 5 mg/mL test compound (see step 2) was added into 195 μL DMSO; 500 μM control solution: 20 mM control stock solution (see step 2) was added to 195 μL DMSO.
2). 0.5% BSA phosphate buffer solution: 0.05 g BSA was added to 10 mL phosphate buffer solution (see step 1);
3). 5 µg/ml of test compound administration solution: 40 μL of 125 μg/mL of test compound solution was added into 960 μL 0.5% BSA phosphate buffer solution, stirred and mixed evenly, and the administration solution was preheated in a 37° C. water bath for 5 minutes.
20 μM reference substance administration solution: 40 μL of 500 μM reference substance administration solution was added into 960 μL 0.5% BSA phosphate buffer solution, stirred and mixed evenly, and the administration solution was preheated in a 37° C. water bath for 5 minutes.
5. 10 μL of 5 μg/mL of the test compound and 20 μM of the control substance administration solution were respectively added to the wells set at different time points (0 minutes, 1 hour, 2 hours and 4 hours) on the 96-well plate, and the number of duplicate samples was 3.
6. 500 μL of ACN (IS) containing 5% FA was added to the well set at 0 minute hour, then 90 μL of plasma was added, after mixing, sealing film was pasted and placed at 4° C. (number of duplicate samples was 3).
7. 90 μL of plasma was added to the wells with set time points of 1 hour, 2 hours and 4 hours respectively, the number of duplicate samples was 3, and timing was started (the final concentration of the test compound was 500 ng/ml; The control was 2 μM).
9. All samples (0 minutes, 1 hour, 2 hours and 4 hours) at different time points on a 96-well plate were shaken for 10 minutes at 600 rpm/min on an oscillator (MTS 2/4, IKA), and then the samples were centrifuged for 15 minutes at 5594×g in a centrifuge (Multifuge×3R, thermo Fisher).
10. 150 μL of supernatant was taken from the centrifuged sample and sent to LC-MS/MS for analysis (conventional polypeptide LC-MS/MS analysis method).

T1 sequence (Q969F8 whole entry): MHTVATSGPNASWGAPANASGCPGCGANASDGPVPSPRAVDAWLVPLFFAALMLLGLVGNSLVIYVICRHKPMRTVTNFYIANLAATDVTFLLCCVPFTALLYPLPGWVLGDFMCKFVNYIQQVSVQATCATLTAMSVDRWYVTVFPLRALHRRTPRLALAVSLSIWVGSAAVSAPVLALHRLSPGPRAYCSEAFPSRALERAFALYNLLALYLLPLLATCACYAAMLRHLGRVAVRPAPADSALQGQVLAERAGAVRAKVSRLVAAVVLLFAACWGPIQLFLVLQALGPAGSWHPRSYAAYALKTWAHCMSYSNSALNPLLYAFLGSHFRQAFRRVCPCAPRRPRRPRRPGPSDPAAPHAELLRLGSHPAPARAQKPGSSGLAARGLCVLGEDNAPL

| SMILES | EC50 [1] [nM] | half-life at 500 ng/ml [2] [h] |
| --- | --- | --- |
| CCCCCCCCCCCCCCCC(=O)NCCOCCOCCOCCOCCOCCOCCOCCOCCC(=O)NCC(=O)NCC(=O)N[C@H](Cc1ccc(O)cc1)C(=O)N1C[C@H](O)C[C@H]1C(=O)N[C@@H](CC(N)=O)C(=O)N[C@H](C(=O)N[C@@H](Cc1ccccc1)C(=O)NNC(=O)N[C@@H](CC(C)C)C(=O)N[C@@H](CCCNC(=N)NC)C(=O)N[C@@H](Cc1c[nH]c2ccccc12)C(N)=O)[C@@H](C)O [YA-156, Palm-PEG8-Gly-Gly-(D-Tyr)-Hyp-Asn-Thr-Phe-azaGly-Leu-Arg(Me)-Trp-NH2] ({Palmitoyl-PEG8}-GG[dY][Hyp]NTF[azaGly]L[Arg(Me)]W-NH2) | 0.045 | 44.4 |
| CCCCCCCCCCCCCCCC(=O)NCCOCCOCCOCCOCCOCCOCCOCCOCCC(=O)NCCCC[C@H](NC(C)=O)C(=O)NCC(=O)NCC(=O)N[C@H](Cc1ccc(O)cc1)C(=O)N1C[C@H](O)C[C@H]1C(=O)N[C@@H](CC(N)=O)C(=O)N[C@H](C(=O)N[C@@H](Cc1ccccc1)C(=O)NNC(=O)N[C@@H](CC(C)C)C(=O)N[C@@H](CCCNC(=N)NC)C(=O)N[C@@H](Cc1c[nH]c2ccccc12)C(N)=O)[C@@H](C)O [YA-157, Ac-Lys(Palm-PEG8)-Gly-Gly-(D-Tyr)-Hyp-Asn-Thr-Phe-azaGly-Leu-Arg(Me)-Trp-NH2] (Ac-K([PEG8-Palmitoyl])GG[dY][Hyp]NTF[azaGly]L[Arg(Me)]W-NH2) | 0.03 | 6.67 |
| CNC(=N)NCCC[C@H](NC(=O)[C@H](CC(C)C)NC(=O)C1(NC(=O)[C@H](Cc2ccccc2)NC(=O)[C@@H](NC(=O)[C@H](CC(N)=O)NC(=O)[C@@H]2C[C@@H](O)CN2C(=O)[C@@H](Cc2ccc(O)cc2)NC(C)=O)[C@@H](C)O)CCCCC1)C(=O)N[C@@H](Cc1c[nH]c2ccccc12)C(N)=O [YA-175, Ac-D-Tyr-Hyp-Asn-Thr-Phe-A6c-Leu-Arg(Me)-Trp-NH2] (Ac-[dY][Hyp]NTF[Ac6c]L[Arg(Me)]W-NH2) | 0.132 | 2.05 |
| CNC(=N)NCCC[C@H](NC(=O)[C@H](CC(C)C)NC(=O)NNC(=O)[C@H](Cc1ccccc1)NC(=O)[C@@H](NC(=O)[C@H](CC(N)=O)NC(=O)[C@@H]1CCCCN1C(=O)[C@@H](Cc1ccc(Cl)cc1Cl)NC(C)=O)[C@@H](C)O)C(=O)N[C@@H](Cc1c[nH]c2ccccc12)C(N)=O [YA-182, Ac-[D-Phe(2,4-DiCl)]—(S-Pip)-Asn-Thr-Phe-azaGly-Leu-Arg(Me)-Trp-NH2] (Ac-[dPhe(2,4-Cl2)][Pip]NTF[azaGly]L[Arg(Me)]W-NH2) | 0.021 | 5.32 |
| CNC(=N)NCCC[C@H](NC(=O)[C@H](CC(C)C)NC(=O)C1(NC(=O)[C@H](Cc2ccccc2)NC(=O)[C@@H](NC(=O)[C@H](CC(N)=O)NC(=O)[C@@H]2CC(F)(F)CN2C(=O)[C@@H](Cc2ccco2)NC(C)=O)[C@@H](C)O)CCCCC1)C(=O)N[C@@H](Cc1c[nH]c2ccccc12)C(N)=O [YA-201, Ac-(D-2Fua)-Pro(diF)-Asn-Thr-Phe-A6c-Leu-Arg(Me)-Trp-NH2] (Ac-[dAla(2-furyl)][Pro(4,4-F2)]NTF[Ac6c]L[Arg(Me)]W-NH2) | 0.39 | 2.65 |
| CCCCCCCCCCCCCCCC(=O)NCCOCCOCCOCCOCCOCCOCCOCCOCCC(=O)NCC(=O)NCC(=O)N[C@H](Cc1ccco1)C(=O)N1CC(F)(F)C[C@H]1C(=O)N[C@@H](CC(N)=O)C(=O)N[C@H](C(=O)N[C@@H](Cc1ccccc1)C(=O)NC1(C(=O)N[C@@H](CC(C)C)C(=O)N[C@@H](CCCNC(=N)NC)C(=O)N[C@@H](Cc2c[nH]c3ccccc23)C(N)=O)CCCCC1)[C@@H](C)O [YA-220, Palm-PEG8-Gly-Gly-D-3Fua-Pro(diF)-Asn-Thr-Phe-A6c-Leu-Arg(Me)-Trp-NH2] ({Palmitoyl-PEG8}-GG[dAla(2-furyl)][Pro(4,4-F2)]NTF[Ac6c]L[Arg(Me)]W-NH2) | 0.023 | 59 |
| CNC(=N)NCCC[C@H](NC(=O)[C@H](CC(C)C)NC(=O)NNC(=O)[C@H](Cc1ccccc1)NC(=O)[C@@H](NC(=O)[C@H](CC(N)=O)NC(=O)[C@@H]1C[C@@H]2CCCC[C@@H]2N1C(=O)[C@@H](Cc1ccc(O)cc1)NC(C)=O)[C@@H](C)O)C(=O)N[C@@H](Cc1c[nH]c2ccccc12)C(N)=O [YA-230, Ac-D-Tyr-Oic-Asn-Thr-Phe-azaGly-Leu-Arg(Me)-Trp-NH2] (Ac-[dY][Oic]NTF[azaGly]L[Arg(Me)]W-NH2) | 0.04 | 3.64 |
| CCCCCCCCCCCCCCCC(=O)NCCOCCOCCOCCOCCOCCOCCOCCOCCC(=O)NCC(=O)NCC(=O)N[C@H](Cc1ccc(O)cc1)C(=O)N1C[C@H](O)C[C@H]1C(=O)N[C@@H](CC(N)=O)C(=O)N[C@H](C(=O)N[C@@H](Cc1ccccc1)C(=O)NC1(C(=O)N[C@@H](CC(C)C)C(=O)N[C@@H](CCCNC(=N)NC)C(=O)N[C@@H](Cc2c[nH]c3ccccc23)C(N)=O)CCCCC1)[C@@H](C)O [YA-264, Palm-PEG 8-Gly-Gly-D-Tyr-Hyp-Asn-Thr-Phe-A6C-Leu-Arg(Me)-Trp-NH2] ({Palmitoyl-PEG8}-GG[dY][Hyp]NTF[Ac6c]L[Arg(Me)]W-NH2) | 0.029 | 13 |
| CNC(=N)NCCC[C@H](NC(=O)[C@H](CC(C)C)NC(=O)NNC(=O)[C@H](Cc1ccccc1)NC(=O)[C@@H](NC(=O)[C@H](CC(N)=O)NC(=O)C1(NC(=O)[C@@H](Cc2ccco2)NC(C)=O)CCCCC1)[C@@H](C)O)C(=O)N[C@@H](Cc1c[nH]c2ccccc12)C(N)=O [YA-271, Ac-(D-2Fua)-A6c-Asn-Thr-Phe-azaGly-Leu-Arg(Me)-Trp-NH2] (Ac-[dAla(2-furyl)][Ac6c]NTF[azaGly]L[Arg(Me)]W-NH2) | 0.025 | 15.6 |
| CNC(=N)NCCC[C@H](NC(=O)[C@H](CC(C)C)NC(=O)NNC(=O)[C@H](Cc1ccccc1)NC(=O)[C@@H](NC(=O)[C@H](CC(N)=O)NC(=O)[C@@H]1C[C@@H](O)CN1C(=O)[C@@H](Cc1ccc(O)cc1)NC(=O)COCCOCCNC(=O)COCCOCCNC(=O)CCCCCCCCCCCCCCCCC(=O)O)[C@@H](C)O)C(=O)N[C@@H](Cc1c[nH]c2ccccc12)C(N)=O [YA-273, C 18 diacid-OEG-OEG-D-Tyr-Hyp-Asn-Thr-Phe-azaGly-Leu-Arg(Me)-Trp-NH2] ({C18 diacid-AEEA-AEEA}-[dY][Hyp]NTF[azaGly]L[Arg(Me)]W-NH2) | 0.05 | 166 |
| CCCCCCCCCCCCCCCC(=O)NCCOCCOCCOCCOCCOCCOCCOCCOCCC(=O)NCC(=O)NCC(=O)N[C@H](Cc1ccc(O)cc1)C(=O)N1C[C@H](O)C[C@H]1C(=O)N[C@@H](CC(N)=O)C(=O)N[C@H](C(=O)N[C@@H](Cc1ccccc1)C(=O)N[C@H](Cc1ccco1)C(=O)N[C@@H](CC(C)C)C(=O)N[C@@H](CCCNC(=N)NC)C(=O)N[C@@H](Cc1c[nH]c2ccccc12)C(N)=O)[C@@H](C)O [YA-288, Palm-PEG 8-Gly-Gly-D-Tyr-Hyp-Asn-Thr-Phe-(D-2Fua)-Leu-Arg(Me)-Trp-NH2] ({Palmitoyl-PEG8}-GG[dY][Hyp]NTF[dAla(2-furyl)]L[Arg(Me)]W-NH2) | 0.018 | 27.5 |
| CCCCCCCCCCCC(=O)NCCOCCOCCOCCOCCC(=O)NCCOCCOCCOCCOCCC(=O)N[C@H](Cc1ccc(O)cc1)C(=O)N1C[C@H](O)C[C@H]1C(=O)N[C@@H](CC(N)=O)C(=O)N[C@H](C(=O)N[C@@H](Cc1ccccc1)C(=O)NNC(=O)N[C@@H](CC(C)C)C(=O)N[C@@H](CCCNC(=N)NC)C(=O)N[C@@H](Cc1c[nH]c2ccccc12)C(N)=O)[C@@H](C)O [YA-296, Dodecanoyl-PEG4-PEG4-D-Tyr-Hyp-Asn-Thr-Phe-azaGly-Leu-Arg(Me)-Trp-NH2] ({Lauroyl-PEG4-PEG4}-[dY][Hyp]NTF[azaGly]L[Arg(Me)]W-NH2) | 0.011 | 2.73 |
